One data set deals with T1, human CB2R (Homo sapiens, UniProt P34972).
T1 construct: host or cells: CHO-K1 (CHOK1hCB2_bgal)
Nature of the data set: [3H]CP55,940 displacement assay on CHO membranes, CB2R. Type of data set: binding. Conditions: for Ki: [3H]CP55,940 displacement; for hCB2R % displacement at 10 µM: [3H]CP55,940 displacement at 10 µM compound, ± SEM; for Binding to CB2R (in words): radioligand binding assay.

Data set [1] is described as follows: Photophysical characterization in PBS. The format is physicochemical. The conditions noted are these: PBS pH 7.4.
For a further data set, the target named is hCB1R (Homo sapiens, UniProt P21554). Nature of the data set: [3H]CP55,940 displacement assay on CHO membranes, CB1R. Type of data set: binding. Set-up: host or cells: CHO-K1 (CHOK1hCB1_bgal). Conditions: for hCB1R % displacement at 10 µM: [3H]CP55,940 displacement at 10 µM compound, ± SEM; for Ki: [3H]CP55,940 displacement; for Binding to CB1R (in words): radioligand binding assay.
Sequence of hCB1R (P21554 whole entry): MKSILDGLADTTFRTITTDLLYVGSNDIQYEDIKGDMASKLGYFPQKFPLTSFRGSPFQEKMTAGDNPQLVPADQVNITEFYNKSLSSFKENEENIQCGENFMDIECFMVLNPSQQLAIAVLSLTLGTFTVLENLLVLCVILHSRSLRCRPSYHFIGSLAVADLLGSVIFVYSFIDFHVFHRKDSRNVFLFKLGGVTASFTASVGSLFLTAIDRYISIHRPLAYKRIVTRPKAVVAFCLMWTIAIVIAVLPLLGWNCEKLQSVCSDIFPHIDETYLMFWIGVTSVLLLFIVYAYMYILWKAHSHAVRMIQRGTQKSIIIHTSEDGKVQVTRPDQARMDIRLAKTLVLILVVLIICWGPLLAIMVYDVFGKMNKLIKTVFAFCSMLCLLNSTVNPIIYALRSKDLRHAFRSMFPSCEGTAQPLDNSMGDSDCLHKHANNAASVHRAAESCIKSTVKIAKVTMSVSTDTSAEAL

Where [2] appears, read: hCB2R Ki, CHO membranes stably expressing human CB2R, means of three experiments.
Where [3] appears, read: hCB1R Ki, CHO membranes stably expressing human CB1R, means of three experiments.
Where [4] appears, read: CHO membranes stably expressing human CB2R, means of three experiments, read-out: hCB2R Ki.
The mark [5] stands for this setting: CHO membranes stably expressing human CB1R, means of three experiments, read-out: hCB1R Ki.

The results in this text go back to publication PMC11284800 (Journal of Medicinal Chemistry, 2024).

SMILES strings stand for the structures. Read-outs that look alike come from different tables or passages of the source.

T1 sequence (P34972 whole entry): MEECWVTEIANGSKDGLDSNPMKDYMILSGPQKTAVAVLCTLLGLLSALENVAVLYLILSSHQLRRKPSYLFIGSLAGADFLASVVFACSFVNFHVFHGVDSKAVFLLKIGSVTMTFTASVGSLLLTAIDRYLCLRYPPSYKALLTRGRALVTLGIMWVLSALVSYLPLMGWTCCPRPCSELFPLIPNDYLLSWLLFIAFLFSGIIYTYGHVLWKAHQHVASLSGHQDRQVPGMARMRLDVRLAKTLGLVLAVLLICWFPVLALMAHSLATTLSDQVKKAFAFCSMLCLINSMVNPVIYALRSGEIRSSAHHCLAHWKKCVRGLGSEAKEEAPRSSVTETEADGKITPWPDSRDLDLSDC

`CCC(CC)(NC(=O)c1nn(-c2ccc(Cl)cc2Cl)c2c1CCCc1cc(Cl)ccc1-2)C(=O)NCCOCCOCCNc1ccc([N+](=O)[O-])c2nonc12` [Compound 32, 8-Chloro-1-(2,4-dichlorophenyl)-N-(3-((2-(2-(2-((7-nitrobenzo[c][1,2,5]oxadiazol-4-yl)amino)ethoxy)ethoxy)ethyl)carbamoyl)pentan-3-yl)-1,4,5,6-tetrahydrobenzo[6,7]cyclohepta[1,2-c]pyrazole-3-carboxamide] displayed a Ki on human CB2R (setting [2]) of 309 nM. In addition, in data set [1], the “Abs (absorbance maximum)” value is recorded as 485 nm, the “Em (emission maximum)” value was determined as 570 nm and the “QY (quantum yield)” value is listed as 1.30%. The “hCB1R % displacement at 10 µM” value on hCB1R was 35 ± 6%. This compound also came in with a Ki at hCB1R (setting [3]) above 10000 nM.
In the case of `CCC(CC)(NC(=O)c1nn(Cc2cccc(F)c2)c2ccccc12)C(=O)NCCOCCOCCNC(=O)OC(C)(C)C` [Compound 27, tert-Butyl (3,3-Diethyl-1-(1-(3-fluorobenzyl)-1H-indazol-3-yl)-1,4-dioxo-8,11-dioxa-2,5-diazatridecan-13-yl)carbamate], the values for the Ki at human CB2R (setting [2]) and on hCB1R (setting [3]) were 108 nM and above 10000 nM, respectively. Besides, at hCB1R, the “hCB1R % displacement at 10 µM” value is on record as 48 ± 2%.
With `CCC(CC)(NC(=O)c1nn(-c2ccc(Cl)cc2Cl)c(-c2ccc(Cl)cc2)c1C)C(=O)NCCOCCNC(=O)OC(C)(C)C` [Compound 23a, tert-Butyl (2-(2-(2-(5-(4-Chlorophenyl)-1-(2,4-dichlorophenyl)-4-methyl-1H-pyrazole-3-carboxamido)-2-ethylbutanamido)ethoxy)ethyl)carbamate], the Ki is 1590 nM on human CB2R (setting [2]) and 37.2 nM at hCB1R (hCB1R pKi ± SEM, CHO membranes).
On to `CCC(CC)(NC(=O)c1cc(-c2cc(C(F)(F)F)ccc2C(F)(F)F)n(C[C@H]2CCCO2)c1C)C(=O)NCCOCCOCCNc1ccc([N+](=O)[O-])c2nsnc12` [Compound 51, (R)-5-(2,5-Bis(trifluoromethyl)phenyl)-2-methyl-N-(3-((2-(2-(2-((7-nitrobenzo[c][1,2,5]thiadiazol-4-yl)amino)ethoxy)ethoxy)ethyl)carbamoyl)pentan-3-yl)-1-((tetrahydrofuran-2-yl)methyl)-1H-pyrrole-3-carboxamide], for which the Ki on human CB2R (setting [4]) turned out to be 493 nM. In data set [1], the “Abs (absorbance maximum)” value was found to be 465 nm, the “Em (emission maximum)” value came to 550 nm and the “QY (quantum yield)” value is 0.30%. For the same compound, the Ki at hCB1R (setting [5]) was 316 nM.
Consider `CCC(CC)(NC(=O)c1nn(Cc2cccc(F)c2)c2ccccc12)C(=O)NCCOCCOCCNc1ccc([N+](=O)[O-])c2nonc12` [Compound 36, 1-(3-Fluorobenzyl)-N-(3-((2-(2-(2-((7-nitrobenzo[c][1,2,5]oxadiazol-4-yl)amino)ethoxy)ethoxy)ethyl)carbamoyl)pentan-3-yl)-1H-indazole-3-carboxamide], for which the Ki on human CB2R (setting [2]) came to 79 nM. In data set [1], the “Abs (absorbance maximum)” value was found to be 475 nm, the “Em (emission maximum)” value turned out to be 565 nm and the “QY (quantum yield)” value came out at 1.50%. Further, the Ki at hCB1R (setting [3]) came out at 1170 nM.
For `CCC(CC)(NC(=O)c1nn(-c2ccc(Cl)cc2Cl)c(-c2ccc(Cl)cc2)c1C)C(=O)NCCOCCOCCOCCOCCNC(=O)OC(C)(C)C` [Compound 23d, tert-Butyl (1-(5-(4-Chlorophenyl)-1-(2,4-dichlorophenyl)-4-methyl-1H-pyrazol-3-yl)-3,3-diethyl-1,4-dioxo-8,11,14,17-tetraoxa-2,5-diazanonadecan-19-yl)carbamate], the Ki was determined as 2120 nM on human CB2R (setting [2]) and 603 nM on hCB1R (setting [3]).
For `CCC(CC)(NC(=O)c1cnc(OCCOC)c(-c2ccc(Cl)cc2)n1)C(=O)NCCOCCOCCNc1ccc([N+](=O)[O-])c2nonc12` [Compound 34, 6-(4-Chlorophenyl)-5-(2-methoxyethoxy)-N-(3-((2-(2-(2-((7-nitrobenzo[c][1,2,5]oxadiazol-4-yl)amino)ethoxy)ethoxy)ethyl)carbamoyl)pentan-3-yl)pyrazine-2-carboxamide], on human CB2R (CHO membranes, read-out: hCB2R pKi ± SEM (converted)), the Ki was 708 nM. In data set [1], the “Abs (absorbance maximum)” value was 480 nm, the “Em (emission maximum)” value is recorded as 545 nm and the “QY (quantum yield)” value is given as 2.00%. The “hCB1R % displacement at 10 µM” value on hCB1R worked out at 32 ± 6%. For the same compound, on hCB1R (setting [5]), the Ki is above 10000 nM.
Turning to `CCC(CC)(NC(=O)c1nn(-c2ccc(Cl)cc2Cl)c(-c2ccc(Cl)cc2)c1C)C(=O)NCCOCCOCCOCCNC(=O)OC(C)(C)C` [Compound 23c, tert-Butyl (1-(5-(4-Chlorophenyl)-1-(2,4-dichlorophenyl)-4-methyl-1H-pyrazol-3-yl)-3,3-diethyl-1,4-dioxo-8,11,14-trioxa-2,5-diazahexadecan-16-yl)carbamate], the results for the Ki at human CB2R (setting [2]) and on hCB1R (setting [3]) were 2120 nM and 397 nM, respectively.
On to `CCC(CC)(NC(=O)c1cc(-c2cc(C(F)(F)F)ccc2C(F)(F)F)n(C[C@H]2CCCO2)c1C)C(=O)NCCOCCOCCNc1ccc([N+](=O)[O-])c2n[nH]nc12` [Compound 52, (R)-5-(2,5-Bis(trifluoromethyl)phenyl)-2-methyl-N-(3-((2-(2-(2-((7-nitro-2H-benzo[d][1,2,3]triazol-4-yl)amino)ethoxy)ethoxy)ethyl)carbamoyl)pentan-3-yl)-1-((tetrahydrofuran-2-yl)methyl)-1H-pyrrole-3-carboxamide], for which the Ki on human CB2R (setting [4]) worked out at 1620 nM. Besides, in data set [1], the “Abs (absorbance maximum)” value was determined as 425 nm, the “Em (emission maximum)” value came to 495 nm and the “QY (quantum yield)” value amounted to 0.10%. In addition, on hCB1R (setting [5]), the Ki worked out at 225 nM.
Consider `CCC(CC)(NC(=O)c1cnc(OCC2CC2)c(-c2ccc(F)cc2)c1)C(=O)NCCOCCOCCNC(=O)c1ccc2c(c1)C(=O)OC21c2ccc(N(C)C)cc2Oc2cc(N(C)C)ccc21` [Compound 41], for which, at human CB2R, the “hCB2R % displacement at 10 µM” value amounted to 27 ± 3% and the “Binding to CB2R (in words)” value is on record as “did not bind”. The Ki at human CB2R (setting [4]) was above 10000 nM. Besides, in data set [1], the “Abs (absorbance maximum)” value is reported as 560 nm, the “Em (emission maximum)” value is reported as 585 nm and the “QY (quantum yield)” value is given as 47.40%. Further, at hCB1R, the “hCB1R % displacement at 10 µM” value was found to be 9 ± 1% and the “Binding to CB1R (in words)” value is recorded as “did not bind”. Moreover, the Ki at hCB1R (setting [5]) is above 10000 nM.
For the compound `CCC(CC)(NC(=O)c1cc(-c2cc(C(F)(F)F)ccc2C(F)(F)F)n(C[C@H]2CCCO2)c1C)C(=O)NCCOCCOCCOCCNC(=O)OC(C)(C)C` [Compound 22c, tert-Butyl (R)-(1-(5-(2,5-Bis(trifluoromethyl)phenyl)-2-methyl-1-((tetrahydrofuran-2-yl)methyl)-1H-pyrrol-3-yl)-3,3-diethyl-1,4-dioxo-8,11,14-trioxa-2,5-diazahexadecan-16-yl)carbamate], the “hCB2R % displacement at 10 µM” value on human CB2R was 23 ± 5%. The Ki at human CB2R (setting [4]) was above 10000 nM; at hCB1R (setting [5]) it was 1220 nM.
With `CCC(CC)(NC(=O)c1nn(-c2ccc(Cl)cc2Cl)c2c1CCCc1cc(Cl)ccc1-2)C(=O)NCCOCCOCCNC(=O)c1ccc2c(c1)C(=O)OC21c2ccc(N(C)C)cc2Oc2cc(N(C)C)ccc21` [Compound 33], at human CB2R, the “hCB2R % displacement at 10 µM” value is 21 ± 3% and the “Binding to CB2R (in words)” value was “did not bind”. At human CB2R (read-out: hCB2R Ki, CHO membranes stably expressing human CB2R, means of three experiments), the Ki was above 10000 nM. In addition, in data set [1], the “Abs (absorbance maximum)” value was 520 nm, the “Em (emission maximum)” value came out at 585 nm and the “QY (quantum yield)” value was found to be 11.10%. On hCB1R, the “hCB1R % displacement at 10 µM” value was -5 ± 1% and the “Binding to CB1R (in words)” value is “did not bind”. Besides, on hCB1R (read-out: hCB1R Ki, CHO membranes stably expressing human CB1R, means of three experiments), the Ki is above 10000 nM.
Consider `CCC(CC)(NC(=O)c1cnc(OCC2CC2)c(-c2ccc(F)cc2)c1)C(=O)NCCOCCOCCNC(=O)OC(C)(C)C` [Compound 25, tert-Butyl (1-(6-(Cyclopropylmethoxy)-5-(4-fluorophenyl)pyridin-3-yl)-3,3-diethyl-1,4-dioxo-8,11-dioxa-2,5-diazatridecan-13-yl)carbamate], for which the Ki at human CB2R (setting [2]) is 818 nM; on hCB1R (setting [3]) it was 3060 nM; on hCB1R (hCB1R pKi ± SEM, CHO membranes) it was 3020 nM.
For the compound `CCC(CC)(NC(=O)c1nn(-c2ccc(Cl)cc2Cl)c2c1CCCc1cc(Cl)ccc1-2)C(=O)NCCOCCOCCNC(=O)OC(C)(C)C` [Compound 24, tert-Butyl (1-(8-Chloro-1-(2,4-dichlorophenyl)-1,4,5,6-tetrahydrobenzo[6,7]cyclohepta[1,2-c]pyrazol-3-yl)-3,3-diethyl-1,4-dioxo-8,11-dioxa-2,5-diazatridecan-13-yl)carbamate], the Ki on human CB2R (setting [2]) is 776 nM; on hCB1R (setting [3]), above 10000 nM. For the same compound, the “hCB1R % displacement at 10 µM” value at hCB1R stood at 28 ± 3%.
As for `CCC(CC)(NC(=O)c1cnc(OCCOC)c(-c2ccc(Cl)cc2)n1)C(=O)NCCOCCOCCNC(=O)OC(C)(C)C` [Compound 26, tert-Butyl (1-(6-(4-Chlorophenyl)-5-(2-methoxyethoxy)pyrazin-2-yl)-3,3-diethyl-1,4-dioxo-8,11-dioxa-2,5-diazatridecan-13-yl)carbamate], the Ki is 701 nM at human CB2R (setting [4]) and above 10000 nM on hCB1R (setting [5]). Further, on hCB1R, the “hCB1R % displacement at 10 µM” value is on record as 32 ± 6%.
Take `CCC(CC)(NC(=O)c1cc(-c2cc(C(F)(F)F)ccc2C(F)(F)F)n(C[C@H]2CCCO2)c1C)C(=O)NCCOCCNC(=O)OC(C)(C)C` [Compound 22a, tert-Butyl (R)-(2-(2-(2-(5-(2,5-Bis(trifluoromethyl)phenyl)-2-methyl-1-((tetrahydrofuran-2-yl)methyl)-1H-pyrrole-3-carboxamido)-2-ethylbutanamido)ethoxy)ethyl)carbamate]: the “hCB2R % displacement at 10 µM” value at human CB2R is recorded as 20 ± 3%. The values for the Ki on human CB2R (setting [4]) and on hCB1R (setting [5]) were above 10000 nM and 1420 nM, respectively.
